The target of one assay is T1, Human σ1 receptor (Homo sapiens, UniProt Q99720).
T1 construct: expressed in transfected cells; host or cells: HEK-293
Description: Human σ1 receptor radioligand assay ([3H](+)-pentazocine binding, transfected HEK-293 membranes). The following applies: binding to σ1 receptor expressed as Ki; + also covers inhibition between 1% and 50%; read-out: σ-1 binding. The gist of the method: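 Ki was derived from five test concentrations, or % inhibition was measured at a single 1 or 10 μM dose, against 5 nM [3H](+)-pentazocine. Incubation was 120 min at 37° C in 50 mM Tris-HCl pH 8 with 7 μg HEK-293 membranes, and 10 μM haloperidol set non-specific binding. Bound radioactivity was counted after filtration.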

Assay [1] deals with Human α2δ-1 subunit of Cav2.2 calcium channel (Homo sapiens, UniProt P54289). As to the kind of experiment: Human α2δ-1 subunit of Cav2.2 calcium channel assay ([3H]-gabapentin binding). To be noted: binding to the α2δ-1 subunit of voltage-gated calcium channels expressed as Ki; + also covers inhibition between 1% and 50%. The gist of the method:
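Displacement of 15 nM [3H]-gabapentin from human α2δ-1-enriched membranes (Hepes-KOH 10 mM, pH 7.4; 27 °C, 60 min) read by filter binding and radioactivity counting. Values are single-point % inhibition (1 or 10 μM) or five-point Ki; 10 μM pregabalin sets NSB.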

Consider 25 compounds from US12617797B2, “Substituted pyrazolo [1,5-a]pyrimidines having multimodal activity against pain” (ESTEVE PHARMACEUTICALS, S.A., priority 2020, dated 2026).

T1 sequence (Q99720 whole entry): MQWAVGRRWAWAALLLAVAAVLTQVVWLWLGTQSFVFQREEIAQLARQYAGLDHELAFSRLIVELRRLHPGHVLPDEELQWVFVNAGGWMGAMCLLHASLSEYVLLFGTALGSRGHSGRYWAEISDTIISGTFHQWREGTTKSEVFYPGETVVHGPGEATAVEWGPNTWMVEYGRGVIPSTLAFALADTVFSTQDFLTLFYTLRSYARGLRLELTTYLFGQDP
Chain of Human α2δ-1 subunit of Cav2.2 calcium channel (P54289 25-1103): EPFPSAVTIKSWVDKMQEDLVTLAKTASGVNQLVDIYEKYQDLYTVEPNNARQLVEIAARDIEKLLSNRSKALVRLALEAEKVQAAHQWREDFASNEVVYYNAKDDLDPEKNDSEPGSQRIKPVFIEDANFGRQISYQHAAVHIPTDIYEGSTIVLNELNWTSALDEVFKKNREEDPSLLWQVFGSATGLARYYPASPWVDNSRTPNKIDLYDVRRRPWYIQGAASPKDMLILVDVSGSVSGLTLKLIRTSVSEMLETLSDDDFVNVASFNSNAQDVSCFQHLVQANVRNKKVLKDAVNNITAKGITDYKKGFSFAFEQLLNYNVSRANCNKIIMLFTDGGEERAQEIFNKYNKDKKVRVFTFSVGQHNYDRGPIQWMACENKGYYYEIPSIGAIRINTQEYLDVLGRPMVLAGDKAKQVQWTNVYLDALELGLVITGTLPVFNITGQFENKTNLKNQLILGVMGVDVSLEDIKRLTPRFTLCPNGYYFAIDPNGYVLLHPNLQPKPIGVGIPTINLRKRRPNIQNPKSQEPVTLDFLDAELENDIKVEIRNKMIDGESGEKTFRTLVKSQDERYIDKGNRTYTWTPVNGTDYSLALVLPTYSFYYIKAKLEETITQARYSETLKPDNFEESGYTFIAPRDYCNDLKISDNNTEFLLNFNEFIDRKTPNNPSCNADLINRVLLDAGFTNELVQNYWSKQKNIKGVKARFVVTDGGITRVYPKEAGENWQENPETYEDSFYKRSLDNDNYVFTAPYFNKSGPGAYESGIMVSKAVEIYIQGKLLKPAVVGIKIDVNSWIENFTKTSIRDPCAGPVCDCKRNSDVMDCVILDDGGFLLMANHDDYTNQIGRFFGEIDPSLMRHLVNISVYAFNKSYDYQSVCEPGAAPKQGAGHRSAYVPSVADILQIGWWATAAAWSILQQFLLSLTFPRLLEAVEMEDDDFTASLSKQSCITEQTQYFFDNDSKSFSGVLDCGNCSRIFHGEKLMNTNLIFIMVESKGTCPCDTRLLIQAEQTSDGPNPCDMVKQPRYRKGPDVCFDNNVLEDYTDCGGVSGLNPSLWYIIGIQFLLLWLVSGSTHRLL

In the case of `CN[C@@H]1CCN(c2cc3nccc([C@@H]4CCCN(Cc5ccccc5)C4)n3n2)C1` [Example 84, (R)-1-(7-((R)-1-Benzylpiperidin-3-yl)pyrazolo[1,5-a]pyrimidin-2-yl)-N-methylpyrrolidin-3-amine], the Ki was above 1000 nM on Human σ1 receptor and 500 to 5000 nM in assay [1].
With `CN[C@H]1CCN(c2cc3nccc([C@H]4CCCN(Cc5ccccc5)C4)n3n2)C1` [Example 85, (S)-1-(7-((S)-1-Benzylpiperidin-3-yl)pyrazolo[1,5-a]pyrimidin-2-yl)-N-methylpyrrolidin-3-amine], the Ki on Human σ1 receptor is above 1000 nM; in assay [1], above 5000 nM.
For `CN[C@H]1CCN(c2cc3nccc([C@@H]4CCCN(Cc5ccccc5)C4)n3n2)C1` [Example 86, (S)-1-(7-((R)-1-Benzylpiperidin-3-yl)pyrazolo[1,5-a]pyrimidin-2-yl)-N-methylpyrrolidin-3-amine], in that order: above 1000 nM and 500 to 5000 nM.
Taken in the same sequence, the figures for `CN[C@@H]1CCN(c2cc3nccc([C@H]4CCCN(Cc5ccccc5)C4)n3n2)C1` [Example 87, (R)-1-(7-((S)-1-Benzylpiperidin-3-yl)pyrazolo[1,5-a]pyrimidin-2-yl)-N-methylpyrrolidin-3-amine] were above 1000 nM and 500 to 5000 nM.
For `c1ccc(CN2CCCC(c3ccnc4c(N5CCCC5)cnn34)C2)cc1` (centres unmarked) [Example 88, 7-(1-Benzylpiperidin-3-yl)-3-(pyrrolidin-1-yl)pyrazolo[1,5-a]pyrimidine], in that order: 500 to 1000 nM and above 5000 nM.
`Cc1nn2c(C3CCCN(Cc4ccccc4)C3)ccnc2c1N1CCCC1` (centres unmarked) [Example 89, 7-(1-Benzylpiperidin-3-yl)-2-methyl-3-(pyrrolidin-1-yl)pyrazolo[1,5-a]pyrimidine]: the figures for the Ki (at Human σ1 receptor; in assay [1]) were 500 to 1000 nM and 500 to 5000 nM, respectively.
`Cc1nn2c(C3CCCN(Cc4ccccc4)C3)ccnc2c1N` (centres unmarked) [Example 90, 7-(1-Benzylpiperidin-3-yl)-2-methylpyrazolo[1,5-a]pyrimidin-3-amine]: the Ki on Human σ1 receptor is above 1000 nM; in assay [1] it was above 5000 nM.
Taken in the same sequence, the figures for `N#Cc1cc2nccc(C3CCCN(Cc4ccccc4)C3)n2n1` (centres unmarked) [Example 91, 7-(1-Benzylpiperidin-3-yl)pyrazolo[1,5-a]pyrimidine-2-carbonitrile] were above 1000 nM and 500 to 5000 nM.
Taken in the same sequence, the figures for `CN(C)Cc1cc2nccc(C3CCCN(Cc4ccccc4)C3)n2n1` (centres unmarked) [Example 92, 1-(7-(1-Benzylpiperidin-3-yl)pyrazolo[1,5-a]pyrimidin-2-yl)-N,N-dimethylmethanamine] were above 1000 nM and 500 to 5000 nM.
Turning to `CNCc1cc2nccc(C3CCCN(Cc4ccccc4)C3)n2n1` (centres unmarked) [Example 93, 1-(7-(1-Benzylpiperidin-3-yl)pyrazolo[1,5-a]pyrimidin-2-yl)-N-methylmethanamine], the Ki at Human σ1 receptor was above 1000 nM; in assay [1], 500 to 5000 nM.
For `c1ccc(CNCc2cc3nccc(C4CCCN(Cc5ccccc5)C4)n3n2)cc1` (centres unmarked) [Example 94, N-Benzyl-1-(7-(1-benzylpiperidin-3-yl)pyrazolo[1,5-a]pyrimidin-2-yl)methanamine], in that order: above 1000 nM and 500 to 5000 nM.
In the case of `Cc1nn2c(C3CCCN(Cc4ccccc4)C3)ccnc2c1CO` (centres unmarked) [Example 95, (7-(1-Benzylpiperidin-3-yl)-2-methylpyrazolo[1,5-a]pyrimidin-3-yl)methanol], the Ki at Human σ1 receptor was above 1000 nM; in assay [1], above 5000 nM.
Taken in the same sequence, the figures for `CNCc1c(C)nn2c(C3CCCN(Cc4ccccc4)C3)ccnc12` (centres unmarked) [Example 96, 1-(7-(1-Benzylpiperidin-3-yl)-2-methylpyrazolo[1,5-a]pyrimidin-3-yl)-N-methylmethanamine] were above 1000 nM and 500 to 5000 nM.
Taken in the same sequence, the figures for `Cc1nn2c(C3CCCN(Cc4ccccc4)C3)ccnc2c1CNCCc1ccccc1` (centres unmarked) [Example 97, N-((7-(1-Benzylpiperidin-3-yl)-2-methylpyrazolo[1,5-a]pyrimidin-3-yl)methyl)-2-phenylethanamine] were below 500 nM and 500 to 5000 nM.
Taken in the same sequence, the figures for `Cc1nn2c(C3CCCN(Cc4ccccc4)C3)ccnc2c1CNCc1ccccc1` (centres unmarked) [Example 98, N-Benzyl-1-(7-(1-benzylpiperidin-3-yl)-2-methylpyrazolo[1,5-a]pyrimidin-3-yl)methanamine] were below 500 nM and 500 to 5000 nM.
Regarding `Cc1nn2c(C3CCCN(Cc4ccccc4)C3)ccnc2c1CN` (centres unmarked) [Example 99, (7-(1-Benzylpiperidin-3-yl)-2-methylpyrazolo[1,5-a]pyrimidin-3-yl)methanamine], the Ki at Human σ1 receptor was above 1000 nM; in assay [1], 500 to 5000 nM.
Consider `Cc1nn2c(C3CCCN(Cc4ccccc4)C3)ccnc2c1CN1CCNCC1` (centres unmarked) [Example 100, 7-(1-Benzylpiperidin-3-yl)-2-methyl-3-(piperazin-1-ylmethyl)pyrazolo[1,5-a]pyrimidine], for which the Ki on Human σ1 receptor is above 1000 nM; in assay [1], 500 to 5000 nM.
For `Cc1nn2c(C3CCCN(Cc4ccccc4)C3)ccnc2c1COCc1ccccc1` (centres unmarked) [Example 101, 3-((Benzyloxy)methyl)-7-(1-benzylpiperidin-3-yl)-2-methylpyrazolo[1,5-a]pyrimidine], in that order: below 500 nM and above 5000 nM.
Taken in the same sequence, the figures for `Cc1nn2c(C3CCCN(Cc4ccccc4)C3)ccnc2c1COc1ccccc1` (centres unmarked) [Example 102, 7-(1-Benzylpiperidin-3-yl)-2-methyl-3-(phenoxymethyl)pyrazolo[1,5-a]pyrimidine] were above 1000 nM and above 5000 nM.
Consider `Cc1nn2c(C3CCCN(Cc4ccccc4)C3)ccnc2c1CCCN` (centres unmarked) [Example 103, 3-(7-(1-Benzylpiperidin-3-yl)-2-methylpyrazolo[1,5-a]pyrimidin-3-yl)propan-1-amine], for which the Ki at Human σ1 receptor is above 1000 nM; in assay [1], 500 to 5000 nM.
Taken in the same sequence, the figures for `Cc1nn2c([C@@H]3CCCN([C@H](CO)c4ccccc4)C3)ccnc2c1-c1ccncc1` [Example 106, (S)-2-((R)-3-(2-Methyl-3-(pyridin-4-yl)pyrazolo[1,5-a]pyrimidin-7-yl)piperidin-1-yl)-2-phenylethanol] were above 1000 nM and above 5000 nM.
As for `Cc1nn2c([C@H]3CCCN([C@H](CO)c4ccccc4)C3)ccnc2c1-c1ccncc1` [Example 107, (S)-2-((S)-3-(2-methyl-3-(pyridin-4-yl)pyrazolo[1,5-a]pyrimidin-7-yl)piperidin-1-yl)-2-phenylethanol], the figures for the Ki (at Human σ1 receptor; in assay [1]) were above 1000 nM and above 5000 nM, respectively.
For `Cc1nn2c([C@H]3CCCN([C@@H](CO)c4ccccc4)C3)ccnc2c1-c1ccncc1` [Example 108, (R)-2-((S)-3-(2-methyl-3-(pyridin-4-yl)pyrazolo[1,5-a]pyrimidin-7-yl)piperidin-1-yl)-2-phenylethanol], in that order: above 1000 nM and above 5000 nM.
Consider `Cc1nn2c([C@@H]3CCCN([C@@H](CO)c4ccccc4)C3)ccnc2c1-c1ccncc1` [Example 109, (R)-2-((R)-3-(2-methyl-3-(pyridin-4-yl)pyrazolo[1,5-a]pyrimidin-7-yl)piperidin-1-yl)-2-phenylethanol], for which the Ki was above 1000 nM at Human σ1 receptor and 500 to 5000 nM in assay [1].
For the compound `Clc1ccc(CN2CCCC(c3ccnc4cc(Br)nn34)C2)cc1` (centres unmarked) [Example 110, 2-Bromo-7-(1-(4-chlorobenzyl)piperidin-3-yl)pyrazolo[1,5-a]pyrimidine], the Ki was 500 to 1000 nM on Human σ1 receptor and above 5000 nM in assay [1].
